Laboratory results: patent US11858905B1, “Cathepsin L inhibitors” (priority 2023, dated 2024)
Like-named read-outs stand apart in the source and are kept apart here.

Assays:
human CatL = human CatL (Homo sapiens (Human), UniProt P07711); assay: Human Cathepsin L (CatL) enzymatic assay; type: biochemical
Description: Human Cathepsin L (CatL) Enzymatic Assay
60 μL of the compounds were added to 384-well dilution plate. The compound solution was diluted for 1:3 in succession in DMSO for each column for 10 pts. 0.05 μL diluted compound solution was added in each row to 384 assay plates (Corning 4514) using Echo (LABCYTE 655), each column containing 2 replicates. 5 μL working solution of human CatL enzyme (Abcam #ab81780) was added to 384-well assay plate, centrifuge 1000 rpm for 1 min. The mixture was incubated at […] for 15 min, then add 5 μL working solution of CatL substrate (Genscript #C7360HB140_5) to initiate the reaction (CatL: 0.05 nM, Substrate: 500 nM). Incubate at […] for 30 min. Reading Ex370 nm and Em460 nm fluorescence signals with BMG CLARIO Star Plusaucu. Percent inhibition for each compound was calculated and IC50 (half maximal inhibitory concentration) was fitted from non-linear regression by XLfit 5.5.0.

SARS-CoV-2 PsVs = assay: microbe, parasite or virus in culture; type: cell-based; details: for activity at 0.5 µM / activity at 5 µM: Severe acute respiratory syndrome coronavirus 2, Vero C1008, 24 h; for activity at 0.5 µM: read-out: % Infection rate at 500 nM; for activity at 5 µM: read-out: % Infection rate at 5 uM
[1] = CatL 0.05 nM, substrate 500 nM, pH 5.5, read-out: Enzymatic inhibition IC50
[2] = summary of Table 2, read-out: IC50 for inhibiting CatL

Chain of human CatL (P07711 whole entry, looked up): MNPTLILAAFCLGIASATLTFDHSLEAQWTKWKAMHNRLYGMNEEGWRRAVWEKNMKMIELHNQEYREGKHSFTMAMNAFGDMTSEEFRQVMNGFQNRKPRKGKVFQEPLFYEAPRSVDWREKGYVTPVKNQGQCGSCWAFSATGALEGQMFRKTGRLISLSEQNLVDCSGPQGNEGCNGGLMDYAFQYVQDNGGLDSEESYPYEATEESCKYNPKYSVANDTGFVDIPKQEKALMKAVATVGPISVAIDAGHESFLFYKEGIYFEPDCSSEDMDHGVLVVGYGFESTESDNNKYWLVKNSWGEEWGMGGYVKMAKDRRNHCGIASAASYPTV

Structure (SMILES)	IC50 (human CatL; [1]) [nM]	IC50 (human CatL; [2]) [nM]	protection of cells from pseudovirus infection at 500 nM (SARS-CoV-2 PsVs; 500 nM)	activity at 0.5 µM (SARS-CoV-2 PsVs) [%]	activity at 5 µM (SARS-CoV-2 PsVs) [%]
CC(C)(C)c1cc(C(=O)N[C@@H](Cc2nc3ccc(C4=CCN(CC(F)F)CC4)cc3o2)C(=O)NC2(C#N)CC2)n(C2CC2)n1 [Compound 29, (S)-3-(tert-butyl)-N-(1-((1-cyanocyclopropyl)amino)-3-(6-(1-(2,2-difluoroethyl)-1,2,3,6-tetrahydropyridin-4-yl)benzo[d]oxazol-2-yl)-1-oxopropan-2-yl)-1-cyclopropyl-1 H-pyrazole-5-carboxamide]	1.3	< 10	nearly full protection	7.3	8.8
CN(C)c1ccc(-c2ccc3nc(C[C@H](NC(=O)c4cc(C5(C)CC5)nn4C4CC4)C(=O)NC4(C#N)CC4)oc3c2)cn1 [Compound 39, (2S)—N-(1-cyanocyclopropyl)-2-{[2-cyclopropyl-5-(1-methylcyclopropyl)pyrazol-3-yl]formamido}-3-{6-[6-(dimethylamino)pyridin-3-yl]-1,3-benzoxazol-2-yl}propanamide]	1.6			32	4
N#CC1(NC(=O)[C@H](Cc2nc3c(-c4cn[nH]c4)cccc3o2)NC(=O)c2cccc(Cl)c2)CC1 [Compound 23, (S)—N-(3-(4-(1H-pyrazol-4-yl)benzo[d]oxazol-2-yl)-1-((1-cyanocyclopropyl)amino)-1-oxopropan-2-yl)-3-chlorobenzamide]	361			93	98
N#CC1(NC(=O)[C@H](Cc2nc3ccc(C4=CCN(CC(F)F)CC4)cc3o2)NC(=O)c2cccc(Cl)c2)CC1 [Compound 28, (S)-3-chloro-N-(1-((1-cyanocyclopropyl)amino)-3-(6-(1-(2,2-difluoroethyl)-1,2,3,6-tetrahydropyridin-4-yl)benzo[d]oxazol-2-yl)-1-oxopropan-2-yl)benzamide]	12.3			70	38
CC1(c2cc(C(=O)N[C@@H](Cc3nc4ccc(C5=CCN(CC(F)F)CC5)cc4o3)C(=O)NC3(C#N)CC3)n(C3CC3)n2)CC1 [Compound 40, (S)—N-(1-((1-cyanocyclopropyl)amino)-3-(6-(1-(2,2-difluoroethyl)-1,2,3,6-tetrahydropyridin-4-yl)benzo[d]oxazol-2-yl)-1-oxopropan-2-yl)-1-cyclopropyl-3-(1-methylcyclopropyl)-1H-pyrazole-5-carboxamide]	1.5			57	12
Cc1cc(-c2ccc3nc(C[C@H](NC(=O)c4cc(C5(C)CC5)nn4C4CC4)C(=O)NC4(C#N)CC4)oc3c2)ccn1 [Compound 38, (S)—N-(1-((1-cyanocyclopropyl)amino)-3-(6-(2-methylpyridin-4-yl)benzo[d]oxazol-2-yl)-1-oxopropan-2-yl)-1-cyclopropyl-3-(1-methylcyclopropyl)-1H-pyrazole-5-carboxamide]	1.7			34	1
CN1CCN(c2ccc3nc(C[C@H](NC(=O)c4cccc(Cl)c4)C(=O)NC4(C#N)CC4)oc3c2)CC1 [Compound 24, (S)-3-chloro-N-(1-((1-cyanocyclopropyl)amino)-3-(6-(4-methylpiperazin-1-yl)benzo[d]oxazol-2-yl)-1-oxopropan-2-yl)benzamide]	9.7	< 10		34	2
N#CC1(NC(=O)[C@H](Cc2nc3ccc(Cl)cc3o2)NC(=O)c2cccc(Cl)c2)CC1 [Compound 9, (S)-3-chloro-N-(3-(6-chlorobenzo[d]oxazol-2-yl)-1-((1-cyanocyclopropyl)amino)-1-oxopropan-2-yl)benzamide]	30.5			97	73
CCNc1ccc(-c2ccc3nc(C[C@H](NC(=O)c4cc(C5(C)CC5)nn4C4CC4)C(=O)NC4(C#N)CC4)oc3c2)cn1 [Compound 43, (S)—N-(1-((1-cyanocyclopropyl)amino)-3-(6-(6-(ethylamino)pyridin-3-yl)benzo[d]oxazol-2-yl)-1-oxopropan-2-yl)-1-cyclopropyl-3-(1-methylcyclopropyl)-1H-pyrazole-5-carboxamide]	0.8			18	0.8
N#CC1(NC(=O)[C@H](Cc2nc3c(Cl)cccc3o2)NC(=O)c2cccc(Cl)c2)CC1 [Compound 7, (S)-3-chloro-N-(3-(4-chlorobenzo[d]oxazol-2-yl)-1-((1-cyanocyclopropyl)amino)-1-oxopropan-2-yl)benzamide]	21.1			96	48
N#CCNC(=O)[C@H](Cc1nc2ccccc2o1)NC(=O)c1cc(C2CC2)nn1C1CC1 [Compound 15, (S)—N-(3-(benzo[d]oxazol-2-yl)-1-((cyanomethyl)amino)-1-oxopropan-2-yl)-1,3-dicyclopropyl-1H-pyrazole-5-carboxamide]	19.4	< 50		79	20
CN1CCN(c2ccc3nc(C[C@H](NC(=O)c4cc(C5CC5)nn4C4CC4)C(=O)NCC#N)oc3c2)CC1 [Compound 25, (S)—N-(1-((cyanomethyl)amino)-3-(6-(4-methylpiperazin-1-yl)benzo[d]oxazol-2-yl)-1-oxopropan-2-yl)-1,3-dicyclopropyl-1 H-pyrazole-5-carboxamide]	36.7			54	15
CN1CC=C(c2ccc3nc(C[C@H](NC(=O)c4cccc(Cl)c4)C(=O)NC4(C#N)CC4)oc3c2)CC1 [Compound 27, (S)-3-chloro-N-(1-((1-cyanocyclopropyl)amino)-3-(6-(1-methyl-1,2,3,6-tetrahydropyridin-4-yl)benzo[d]oxazol-2-yl)-1-oxopropan-2-yl)benzamide]	8.5	< 10		40	13
Cc1ccc(-c2ccc3nc(C[C@H](NC(=O)c4cc(C5(C)CC5)nn4C4CC4)C(=O)NC4(C#N)CC4)oc3c2)cn1 [Compound 42, (S)—N-(1-((1-cyanocyclopropyl)amino)-3-(6-(6-methylpyridin-3-yl)benzo[d]oxazol-2-yl)-1-oxopropan-2-yl)-1-cyclopropyl-3-(1-methylcyclopropyl)-1H-pyrazole-5-carboxamide]	4.5			34	5.6
N#CC1(NC(=O)[C@H](Cc2nc3c(Br)cccc3o2)NC(=O)c2cccc(Cl)c2)CC1 [Compound 2, (S)—N-(3-(4-bromobenzo[d]oxazol-2-yl)-1-((1-cyanocyclopropyl)amino)-1-oxopropan-2-yl)-3-chlorobenzamide]	7.5	< 10		55	12
N#CC1(NC(=O)[C@H](Cc2nc3ccc(F)cc3o2)NC(=O)c2cccc(Cl)c2)CC1 [Compound 4, (S)-3-chloro-N-(1-((1-cyanocyclopropyl)amino)-3-(6-fluorobenzo[d]oxazol-2-yl)-1-oxopropan-2-yl)benzamide]	34.9			81	51
CN1CCN(c2ccc3nc(C[C@H](NC(=O)c4cc(C(C)(C)C)nn4C4CC4)C(=O)NC4(C#N)CC4)oc3c2)CC1 [Compound 26, (S)-3-(tert-butyl)-N-(1-((1-cyanocyclopropyl)amino)-3-(6-(4-methylpiperazin-1-yl)benzo[d]oxazol-2-yl)-1-oxopropan-2-yl)-1-cyclopropyl-1 H-pyrazole-5-carboxamide]	1.4	< 10		25	2.2
CC(C)(C)c1cc(C(=O)N[C@@H](Cc2nc3cc(F)cc(Cl)c3o2)C(=O)NC2(C#N)CC2)n(C2CC2)n1 [Compound 21, (S)-3-(tert-butyl)-N-(3-(7-chloro-5-fluorobenzo[d]oxazol-2-yl)-1-((1-cyanocyclopropyl)amino)-1-oxopropan-2-yl)-1-cyclopropyl-1 H-pyrazole-5-carboxamide]	8.2			60	12
N#Cc1cccc2nc(C[C@H](NC(=O)c3cccc(Cl)c3)C(=O)NC3(C#N)CC3)oc12 [Compound 5, (S)-3-chloro-N-(3-(7-cyanobenzo[d]oxazol-2-yl)-1-((1-cyanocyclopropyl)amino)-1-oxopropan-2-yl)benzamide]	122			91	81
CC1(c2cc(C(=O)N[C@@H](Cc3nc4ccc(-c5ccnc(C6CC6)c5)cc4o3)C(=O)NC3(C#N)CC3)n(C3CC3)n2)CC1 [Compound 48, (S)—N-(1-((1-cyanocyclopropyl)amino)-3-(6-(2-cyclopropylpyridin-4-yl)benzo[d]oxazol-2-yl)-1-oxopropan-2-yl)-1-cyclopropyl-3-(1-methylcyclopropyl)-1H-pyrazole-5-carboxamide]	3.5			63	22.4
N#CC1(NC(=O)[C@H](Cc2nc3cccc(Br)c3o2)NC(=O)c2cccc(Cl)c2)CC1 [Compound 3, (S)—N-(3-(7-bromobenzo[d]oxazol-2-yl)-1-((1-cyanocyclopropyl)amino)-1-oxopropan-2-yl)-3-chlorobenzamide]	5.9	< 10		65	10
